# Data reported in patent US20240352070A1, “NOVEL CATHEPSIN INHIBITORS” (Ecole Polytechnique Federale de Lausanne (EPFL), priority 2021, published 2024).
# Numbered stars: 1 amine (or outer) side, 2 acyl side, 3 side chain; on linkers, the order of the positions; unused ones are H or OH. Square brackets hold non-standard residues; d marks the D form. Peptide text beside a SMILES is read from it. Trp(3a,7a-dihydro) = N[C@@H](CC1=CNC2C=CC=CC12)C(=O)O; Butenoyl(2E,4-amino) = O=C(/C=C/CN[*:1])[*:2]; Dap(N3) = [N-]=[N+]=NC[C@H](N)C(=O)O; Pra = C#CC[C@H](N)C(=O)O
# Key:
# cathepsin B (CTSB) = biological target: T1, cathepsin B (CTSB) (Homo sapiens, UniProt P07858); experiment: Specificity assay: FRET assay for CTSB activity; type: biochemical
# T1 construct: purchased RndSystems
# Experimental: (§1) Specificity assay. […] First, we used specific conditions to activate the enzymes. CTSB was diluted in a specific activation buffer (MES 25 mM, DTT 5 mM, pH 5) at 10 ug/ml, incubated at 37° C. for 2 h and then diluted to 1 ug/ml in assay buffer (MES 25 mM, pH 5) for the FRET assay. CTSH was diluted in a different activation buffer (MES 50 mM, CaCl2) 10 mM, NaCl 150 mM, pH 6.5) at 200 ug/ml. In addition, as co-stimulatory activator we used thermolysin diluted at 100 ug/ml in activation buffer and then mixed with an equal volume of the diluted CTSH. The solution was incubated for 1 h at room temperature and then we added 2 mM Phosphoramidon diluted in assay buffer (MES 50 mM, pH 6.5) and we incubated the mix for 10 minutes at room temperature. Lastly, we added an equal volume of assay buffer containing 20 mM DTT and incubated the solution for 5 minutes at room temperature. For the FRET assay, we diluted both CTSH, and CTSB at 1 ug/ml in their specific assay buffer and incubated them with a specific substrate. We used as substrate KPPKPVSD in CTSB FRET assays and KLRMKLPKP in CTSH FRET assays and we tested two doses of our P3 inhibitor (20 uM and 50 uM). Fluorescence emission was measured with SpectraMax iD3 (Molecular Devices) in kinetic mode over three hours (excitation: 330 nm, emission: 390 nm).
# CTSS wild-type = biological target: T2, CTSS wild-type (Homo sapiens, UniProt P25774); experiment: FRET assay to test CTSS activity (wild-type); type: biochemical
# T2 construct: made in house; host or cells: HEK293
# Description: (§2) Cathepsins protein expression and purification. For CTSS purification, the human CTSS sequence depleted of the lysosomal localization signal (amino acids 17 to 331) was amplified from pLVX plasmids expressing WT or Y132D CTSS using the following primers: […]
# The PCR products were digested using Agel and Kpn1 restriction enzymes (NEB, cat #R3552S and #R3142S), then cloned in pHLsec plasmids carrying a secretion signal at the N-terminal of the MCS and a His-tag sequence at the C-terminal of the MCS. pHLsec-CTSS plasmids were transfected into HEK293 cells with PEI (polyethyleneimine) in presence of VPA (valproic acid). Proteins were purified from the supernatant using a 5 ml His-Trap FF column on an ÄKTA pure system (GE healthcare). Bound proteins were eluted using a 300 mM imidazole solution. Concentrated proteins were further purified by size exclusion chromatography on a HiLoad® 16/600 Superdex® 75 pg column (GE Healthcare) using PBS as mobile phase. Purified proteins were quantified by Nanodrop, diluted in a buffer containing 12.5 mM MES, 75 mM NaCl and 50% glycerol at ph 6.5 and stored at −20° C. […]
# FRET (Fluorescence Resonance Energy Transfer) assay to test CTSS activity. […] The peptide was added to the activated CTSS (50 ul/well) and fluorescent emission (MCA) was measured with SpectraMax iD3 (Molecular Devices) in kinetic mode for three hours (excitation: 330 nm, emission: 390 nm). […]
# CTSS Y132D = biological target: T3, CTSS Y132D (Homo sapiens, UniProt P25774, Y132D); experiment: FRET assay with mutated CTSS Y132D; type: biochemical
# T3 construct: made in house; host or cells: HEK293
# Description: as §2
# The PCR products were digested using Agel and Kpn1 restriction enzymes (NEB, cat #R3552S and #R3142S), then cloned in pHLsec plasmids carrying a secretion signal at the N-terminal of the MCS and a His-tag sequence at the C-terminal of the MCS. pHLsec-CTSS plasmids were transfected into HEK293 cells with PEI (polyethyleneimine) in presence of VPA (valproic acid). Proteins were purified from the supernatant using a 5 ml His-Trap FF column on an ÄKTA pure system (GE healthcare). Bound proteins were eluted using a 300 mM imidazole solution. Concentrated proteins were further purified by size exclusion chromatography on a HiLoad® 16/600 Superdex® 75 pg column (GE Healthcare) using PBS as mobile phase. Purified proteins were quantified by Nanodrop, diluted in a buffer containing 12.5 mM MES, 75 mM NaCl and 50% glycerol at ph 6.5 and stored at −20° C. Purified CTSB and CTSH were purchased from RndSystems.
# FRET (Fluorescence Resonance Energy Transfer) assay to test CTSS activity. For FRET experiments, CTSS-His was diluted to 10 μg/mL in assay buffer (50 mM NaOAc, 5 mM DTT, 250 mM NaCl), at pH 4.5 and incubated at 37° C. for 90 minutes to allow auto-activation. The protein was then diluted to 0.5 ng/ul in assay buffer and plated in 96-well plates (50 ul/well). […] The peptide was added to the activated CTSS (50 ul/well) and fluorescent emission (MCA) was measured with SpectraMax iD3 (Molecular Devices) in kinetic mode for three hours (excitation: 330 nm, emission: 390 nm).
# It was recently reported that 5.7% of lymphoma patients harbour a specific gain of function mutation changing the tyrosine 132 in aspartate (Y132D) or asparagine (Y132N). […] This was measured through a FRET assay in which the inhibitor was incubated with CTSS Y132D. […]
# cathepsin H (CTSH) = biological target: T4, cathepsin H (CTSH) (Homo sapiens, UniProt P09668); experiment: Specificity assay: FRET assay for CTSH activity; type: biochemical; conditions: at 20 uM or 50 uM, 180 minutes
# T4 construct: purchased RndSystems
# Experimental: as §1
# CTSS in WSU-DLCL2 cells = experiment: CD74 accumulation assay in WSU-DLCL2 cells; type: cell-based, human; conditions: 48 hours, compared to PBS or antibody mixed to C10 in absence of linker
# Experimental: (§3) FIG. 7. A-B CD74 accumulation after 48 hours-long anti-CD22 APeC treatment in WSU cells (A) and Raji cells (B). C-D CD74 accumulation after 48 hours-long anti-CD79 APeC treatment in WSU cells (C) and Raji cells (D). Single-cell fluorescence was measured by flow cytometry. CTSS inhibitor Petesicatib was used as positive control.
# (§4) CD74 accumulation assay for efficacy assessment. To test the efficacy of our APeCs, 2×10^5 WSU-DLCL2 or Raji cells were incubated for two days with 300 or 500 ug/ml of APeC, in RPMI 1640 medium (ThermoFisher Scientific) supplemented with 10% FBS and 1% Penicillin-Streptomycin (ThermoFisher Scientific, cat. no. 15140122). After the first 24 h treatment, the cells were washed and resuspended in fresh APeC at the same treatment concentration. As negative controls, the same number of cells was either treated with PBS or with 300 ug/ml of the corresponding antibody previously incubated with C10 inhibitor in absence of DBCO-maleimide linker. […] Cells were then stained with anti-human CD74 antibody (BioLegend, cat. no. 357604) and fluorescence was measured by flow cytometry using BD LSRFortessa instrument (BD Biosciences). […] The gel was analysed by scanning in-gel fluorescence on a Typhoon Trio flat-bed laser scanner (GE Healthcare), and protein loading was confirmed by staining with Coomassie® Brilliant Blue R-250 (Schmidt GmbH). […]
# CTSS in Raji cells = experiment: CD74 accumulation assay in Raji cells; type: cell-based, human; conditions: 48 hours, compared to PBS or antibody mixed to C10 in absence of linker
# Experimental: as §3, §4
# [1] = biological target: T5, CTSS in primary human B-cells (Homo sapiens, UniProt P25774); experiment: qABP assay on primary human B-cells; type: cell-based; conditions: 2 different donors
# T5 construct: endogenous in cells; host or cells: primary human B-cells (2 donors)
# Description: FIG. 11. Output of quenched activity-based probe (qABP) assay on primary human B-cells. The presence of a dark band at a precise molecular weight indicates to the detection of a strong activity of the corresponding cathepsin. Absence of a band means complete cathepsin inhibition. APeC=antibody-peptide conjugate. ab=antibody.
# WSU-DLCL2 cells = experiment: Internalization assay by flow cytometry; type: cell-based; conditions: 100 ug/ml
# Experimental: FIG. 6. A-B Results of internalization assay performed by incubating WSU-DLCL2 cells with the Epr-AF488 antibody for 3 hours at 37° C. (A) or 4° C. (B). Single-cell fluorescence was measured by flow cytometry.
# Internalization assay. To test the internalization of the conjugated Epratuzumab antibody, 2×10^5 WSU-DLCL2 cells were incubated at 37° C. for 3 hours with 100 ug/ml of Epr-AF488 in PBS. As negative control, the same number of cells was incubated with 100 ug/ml of Epratuzumab previously incubated with AF488 dye in absence of DBCO-maleimide linker. Each experimental condition was tested in duplicates. Cells were then washed 3 times with PBS and 1 ul of anti-AF488 quencher antibody (ThermoFisher Scientific, A-11094) was added to half of the samples. Samples' fluorescence was measured by flow cytometry using Millipore Guava EasyCyte HT instrument (MilliporeSigma).
# CTSB in MCF-7 cells = biological target: T6, CTSB in MCF-7 cells (Homo sapiens, UniProt P07858); experiment: Quenched activity-based probe (qABP) assay in MCF-7 cells; type: cell-based; conditions: 16 hours, 500 ug/ml APeC, compared to PBS or antibody mixed to C10 without linker
# T6 construct: endogenous in cells; host or cells: MCF-7
# Experimental: FIG. 8. Output of quenched activity-based probe (qABP) assay. The presence of a dark band corresponds to the detection of a strong activity of CTSB. Absence of a band means complete CTSB inhibition. APeC=antibody-peptide conjugate. Ab=antibody.
# as §4, with “linker. Each treatment condition was tested in duplicates.” for “linker.”
# [2] = at 20 uM and at 50 uM, FRET, 180 minutes
# T3 sequence (P25774 115-331 Y132D): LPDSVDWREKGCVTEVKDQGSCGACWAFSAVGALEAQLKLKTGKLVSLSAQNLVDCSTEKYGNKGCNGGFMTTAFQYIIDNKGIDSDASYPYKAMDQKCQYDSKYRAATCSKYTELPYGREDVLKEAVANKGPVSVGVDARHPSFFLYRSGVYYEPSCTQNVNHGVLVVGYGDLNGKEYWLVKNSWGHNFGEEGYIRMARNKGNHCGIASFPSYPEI
# T2 sequence (P25774 115-331): as the sequence (P25774 115-331 Y132D) above, with D18Y counted along it
# T4 sequence (P09668 116-335 limits assumed, other chains not shown): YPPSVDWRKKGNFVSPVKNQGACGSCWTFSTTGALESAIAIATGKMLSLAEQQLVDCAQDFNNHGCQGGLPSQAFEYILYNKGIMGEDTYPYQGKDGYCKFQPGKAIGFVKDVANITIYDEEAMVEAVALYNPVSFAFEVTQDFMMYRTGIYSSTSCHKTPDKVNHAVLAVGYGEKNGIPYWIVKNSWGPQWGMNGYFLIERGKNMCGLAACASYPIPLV
# T5 sequence (P25774 115-331): as the sequence (P25774 115-331 Y132D) above, with D18Y counted along it
compound,measurement,setting,value
"CSCC[C@H](NC(=O)[C@H](CC1=CNC2C=CC=CC12)NC(=O)/C=C/CNC(=O)[C@H](Cc1ccc(O)cc1)NC(=O)[C@H](CCCNC(=N)N)NC(=O)[C@H](CCCNC(=N)N)NC(=O)[C@H](CCCCN)NC(=O)[C@H](CN=[N+]=[N-])NC(C)=O)C(=O)N[C@@H](CC1=CNC2C=CC=CC12)C(N)=O (some centres unmarked) [D5, KRRY(Y)WMW] (Ac-[Dap(N3)]KRRY[Butenoyl(2E,4-amino)][Trp(3a,7a-dihydro)]M[Trp(3a,7a-dihydro)]-NH2)",IC50,"cathepsin B (CTSB); dose-response, 50 minutes of incubation",61.9 nM
"C#CC[C@H](NC(C)=O)C(=O)N[C@@H](CCCCN)C(=O)N[C@@H](CC(C)C)C(=O)N[C@@H](CCCNC(=N)N)C(=O)N[C@@H](CCSC)C(=O)NC/C=C/C(=O)N1CCC[C@H]1C(=O)N[C@@H](CCCCN)C(=O)N[C@@H](CC(=O)O)C(N)=O [P3, KLRM(Y)PKD] (Ac-[Pra]KLRM[Butenoyl(2E,4-amino)]PKD-NH2)",inhibition of wild-type CTSS,CTSS wild-type; [2],able to inhibit
same,inhibition of mutant form of CTSS (Y132D),CTSS Y132D; [2],able to inhibit
same,inhibition of CTSH,cathepsin H (CTSH),not significantly inhibited
same,inhibitory activity on CTSB,cathepsin B (CTSB),some inhibitory activity
Cn1cc(-c2ccc(S(=O)(=O)[C@@H]3C[C@@H](C(=O)NC4(C#N)CC4)N(C(=O)C4(C(F)(F)F)CC4)C3)c(C(F)(F)F)c2)cn1 [Petesicatib],CD74 accumulation,CTSS in WSU-DLCL2 cells,lower than what we obtained with lower doses of our APeCs
same,CD74 accumulation,CTSS in Raji cells,lower than what we obtained with lower doses of our APeCs
same,CTSS inhibition (qABP band),[1],comparable
Epr-AF488: Epratuzumab antibody conjugated with AlexaFluor-488 azide-dye instead of C10,internalization by lymphoma cells (inaccessible to quencher antibody),WSU-DLCL2 cells; 3 hours at 37° C.,internalized
same,binding to lymphoma cells,"WSU-DLCL2 cells; 3 hours, flow cytometry",still able to bind lymphoma cells
CC(C)C[C@H](NC(=O)[C@H]1O[C@@H]1C(=O)O)C(=O)NCCCCN=C(N)N [E64],residual CTSB activity,CTSB in MCF-7 cells,inhibited CTSB activity as expected
"CSCC[C@H](NC(=O)[C@H](CCCNC(=N)N)NC(=O)[C@H](Cc1c[nH]cn1)NC(=O)[C@H](CCCCN)NC(=O)[C@H](CN=[N+]=[N-])NC(C)=O)C(=O)NC/C=C/C(=O)N[C@H](C(=O)N[C@@H](CCSC)C(=O)N[C@@H](Cc1c[nH]c2ccccc12)C(N)=O)C(C)C [C10, KHRM(Y)VMW] (Ac-[Dap(N3)]KHRM[Butenoyl(2E,4-amino)]VMW-NH2)",IC50,"CTSS wild-type; FRET assay, dose-response, 50 minutes of incubation, wild-type CTSS",49.3 nM
same,inhibition at 0.5 µM,"CTSS Y132D; at 500 nM, 50 minutes of incubation, read-out: reduction of CTSS Y132D activity (inhibition efficiency)",> 90%
same,reduction of CTSS Y132D activity,"CTSS Y132D; tested at 50 nM, 50 minutes of incubation",more than 50%
